The assay relates to OVCAR-8 cells. Put plainly: Drug-siRNA combination screen: 346-compound anticancer library at 100 nM, CCK-8 viability. To be noted: OVCAR-8; for Score (sum of observed SD values for 18 genes): drug 100 nM plus siRNA knockdown of each of 18 genes, distance VAB−VA×VB in SD, single gene contributes at most +5 / −5, negative = synergy, positive = antagonism; for synergy / antagonism of drug with gene knockdowns, in words / number of genes (of 18) whose knockdown synergizes with the drug: drug 100 nM; for synergy / antagonism of drug with gene knockdowns, in words: panel of 18 siRNA knockdowns; for number of genes (of 18) whose knockdown synergizes with the drug: siRNA knockdown.

Entries after “also recorded” stand apart in the source; their conditions may differ.

Description: Comparisons of drug effect were performed using data generated on the same day. A minimum of two replicates was performed with drug library screening and a minimum of three replicates was done for all other tests.
Combinatorial effects were classified using two measures of combinatorial action: 1) the coefficient of drug interaction (CDI), defined as (VAB/(VA×VB)) and 2) the distance in standard deviation (SD) of VAB−(VA×VB). […] In confirmation studies significance was determined using a Student's T-test (two-tailed, unpaired) with p<0.05 indicating significance.
To measure the effect of a gene on drug effect, comparisons were made between high expressers of each gene and the wild type cells exposed to sham reagents.
In theory, CDI<1 is indicative of synergy while CDI>1 is indicative of antagonism or additive effect in a multiplicative model.

For the molecule `C[C@H](NC(=O)Cc1cc(F)cc(F)c1)C(=O)N[C@@H]1C(=O)N(C)c2ccccc2-c2ccccc21` [0YO-1027], the “Score (sum of observed SD values for 18 genes)” value is −38.72 SD. On to `COc1cc2c(cc1O)CC[C@@H]1[C@@H]2CC[C@]2(C)[C@@H](O)CC[C@@H]12` [2-Methoxyestradiol], for which the “Score (sum of observed SD values for 18 genes)” value is listed as −31.84 SD. As to `Cn1cnc(N)c2ncnc1-2` [3-Methyladenine], the “Score (sum of observed SD values for 18 genes)” value was −24.92 SD. With `CO[C@H]1/C=C\C=C(/C)C(=O)NC2=CC(=O)C(NCCN(C)C)=C(C[C@@H](C)C[C@H](OC)[C@H](O)[C@@H](C)/C=C(\C)[C@@H]1OC(N)=O)C2=O.Cl` [17 - DMAG HCI], the “Score (sum of observed SD values for 18 genes)” value is 19.7 SD.

In the case of `C=CCNC1=C2C[C@@H](C)C[C@H](OC)[C@H](O)[C@@H](C)/C=C(\C)[C@H](OC(N)=O)[C@@H](OC)/C=C\C=C(/C)C(=O)NC(=CC1=O)C2=O` [17-AAG], the “Score (sum of observed SD values for 18 genes)” value was −6.69 SD. As for `N#Cc1c(O)c2c(-c3ccc(-c4ccccc4O)cc3)csc2[nH]c1=O` [A-769662], the “Score (sum of observed SD values for 18 genes)” value is listed as −22.81 SD. In the case of `CN(C)CC[C@H](CSc1ccccc1)Nc1ccc(S(=O)(=O)NC(=O)c2ccc(N3CCN(Cc4ccccc4-c4ccc(Cl)cc4)CC3)cc2)cc1[N+](=O)[O-]` [ABT-737], the “Score (sum of observed SD values for 18 genes)” value is −5.9 SD.

Regarding `COc1ccc(S(=O)(=O)Nc2cccnc2Nc2ccc(O)cc2)cc1` [ABT-751], the “Score (sum of observed SD values for 18 genes)” value is −13.93 SD.

`CN(C)Cc1ccc(-c2nc3cccc4c3n2CCNC4=O)cc1` [AG14361]: the “Score (sum of observed SD values for 18 genes)” value is given as 2.72 SD. As to `Cc1csc(-c2nnc(Nc3ccc(Oc4ncccc4-c4ccnc(N)n4)cc3)c3ccccc23)c1` [AMG 900], the “Score (sum of observed SD values for 18 genes)” value is reported as 11.64 SD. Regarding `O=C(/C=C/c1cccnc1)NCCCCC1CCN(C(=O)c2ccccc2)CC1` [APO866], the “Score (sum of observed SD values for 18 genes)” value is on record as 7.8 SD.

Turning to `CC(C)[C@H](C(=O)Nc1ccc(C(=O)NO)cc1)c1ccccc1` [AR-42], the “Score (sum of observed SD values for 18 genes)” value was −36.88 SD; the “synergy / antagonism of drug with gene knockdowns, in words” value (“synergy / antagonism of drug” below) is “mostly synergistic”; the “number of genes (of 18) whose knockdown synergizes with the drug” value was 10 genes. For `CN[C@@H](C)C(=O)N[C@H]1CN(C(=O)CC(C)C)CC[C@H]2CC[C@@H](C(=O)NC(c3ccccc3)c3ccccc3)N2C1=O` [AT406], the “Score (sum of observed SD values for 18 genes)” value is listed as −38.03 SD. As for `O=C(NC1CCNCC1)c1n[nH]cc1NC(=O)c1c(Cl)cccc1Cl` [AT7519], the “Score (sum of observed SD values for 18 genes)” value was −24.02 SD.

Regarding `O=C(Nc1c[nH]nc1-c1nc2ccc(CN3CCOCC3)cc2[nH]1)NC1CC1` [AT9283], the “Score (sum of observed SD values for 18 genes)” value turned out to be 12.54 SD. In the case of `CCNC(=O)c1noc(-c2cc(C(C)C)c(O)cc2O)c1-c1ccc(CN2CCOCC2)cc1` [AUY922], the “Score (sum of observed SD values for 18 genes)” value came out at 8.46 SD.

As for `Cc1ccc(NC(=O)c2cccc(C(C)(C)C#N)c2)cc1Nc1ccc2ncn(C)c(=O)c2c1` [AZ628], the “Score (sum of observed SD values for 18 genes)” value is −43.85 SD and the “synergy / antagonism of drug” value was “synergistic with knockdown of ten genes”. `NC(=O)Nc1cc(-c2cccc(F)c2)sc1C(=O)N[C@H]1CCCNC1` [AZD7762]: the “Score (sum of observed SD values for 18 genes)” value was −43.68 SD and the “synergy / antagonism of drug” value is “Frequently among the top synergizing pairs; also recorded: high level of synergism”. With `COc1ccc(-c2ccc3c(N4CCOC[C@@H]4C)nc(N4CCOC[C@@H]4C)nc3n2)cc1CO` [AZD8055], the “Score (sum of observed SD values for 18 genes)” value was -51.01 SD. Take `CN(C)C/C=C/C(=O)Nc1cc2c(Nc3ccc(F)c(Cl)c3)ncnc2cc1O[C@H]1CCOC1` [Afatinib]: the “Score (sum of observed SD values for 18 genes)” value is reported as -54.76 SD. Still for that read-out and setting: as for `COc1cc(Nc2ncc3c(n2)-c2ccc(Cl)cc2C(c2c(F)cccc2OC)=NC3)ccc1C(=O)O` [Alisertib], the figure is −2.8 SD. As for `CCC1(c2ccc(N)cc2)CCC(=O)NC1=O` (stereo not drawn) [Aminoglutethimide], the “Score (sum of observed SD values for 18 genes)” value is −9.32 SD. On to `S=C(NCc1ccc2c(c1)OCO2)N1CCN(c2ncnc3c2oc2ccccc23)CC1` [Amuvatinib], for which the “Score (sum of observed SD values for 18 genes)” value was 12.37 SD. On to `Cl.O=C1CN2Cc3c(ccc(Cl)c3Cl)N=C2N1` [Anagrelide HCI], for which the “Score (sum of observed SD values for 18 genes)” value was −8.01 SD. Take `CC(=O)Nc1ccc(OC[C@](C)(O)C(=O)Nc2ccc([N+](=O)[O-])c(C(F)(F)F)c2)cc1` [Andarine]: the “Score (sum of observed SD values for 18 genes)” value is −7.28 SD. Take `C[C@@H](O[C@H]1OCCN(Cc2n[nH]c(=O)[nH]2)[C@H]1c1ccc(F)cc1)c1cc(C(F)(F)F)cc(C(F)(F)F)c1` [Aprepitant]: the “Score (sum of observed SD values for 18 genes)” value is −23.29 SD. In the case of `Cn1cnc([N+](=O)[O-])c1Sc1ncnc2nc[nH]c12` [Azathioprine], the “Score (sum of observed SD values for 18 genes)” value was −28.48 SD. On the same count and under the same terms, then `Cc1ccc(S(=O)(=O)/C=C/C#N)cc1` [BAY 11-7082], with −5.7 SD; and `Cn1c(=O)n(-c2ccc(C(C)(C)C#N)cc2)c2c3cc(-c4cnc5ccccc5c4)ccc3ncc21` [BEZ235], with −35.65 SD; and `CC[C@@H]1C(=O)N(C)c2cnc(Nc3ccc(C(=O)NC4CCN(C)CC4)cc3OC)nc2N1C1CCCC1` [BI2536], with 12.6 SD.

Regarding `C/C(=C\C(=O)Nc1ccccc1C(=O)O)c1ccc2ccccc2c1` [BIBR 1532], the “Score (sum of observed SD values for 18 genes)” value was −16.4 SD. For the molecule `COc1c(C)cnc(Cn2cnc3c(Cl)nc(N)nc32)c1C` [BIIB021], the “Score (sum of observed SD values for 18 genes)” value is given as −33.01 SD and the “synergy / antagonism of drug” value was “Frequently among the top synergizing pairs”. With `CCOc1ccn(-c2ccc(F)cc2)c(=O)c1C(=O)Nc1ccc(Oc2ccnc(N)c2Cl)c(F)c1` [BMS 777607], the “Score (sum of observed SD values for 18 genes)” value is −14.73 SD. For `Nc1nccc(Oc2ccc(NC(=O)c3c[nH]cc(-c4ccc(F)cc4)c3=O)cc2F)c1Cl` [BMS 794833], the “Score (sum of observed SD values for 18 genes)” value is −23.46 SD. In the case of `Cc1c(NC(=O)OC[C@@H]2COCCN2)cn2ncnc(Nc3ccc4c(cnn4Cc4cccc(F)c4)c3)c12` [BMS-599626], the “Score (sum of observed SD values for 18 genes)” value is recorded as −40.89 SD and the “synergy / antagonism of drug” value is “significant synergy with nine or more genes”. In the case of `C[C@H]1COC2(CCN(c3nc(=O)c4cc(C(F)(F)F)cc([N+](=O)[O-])c4s3)CC2)O1` [BTZ043], the “Score (sum of observed SD values for 18 genes)” value was −13.06 SD.

Take `O=C(NCCCNc1nc(Nc2cccc(NC(=O)N3CCCC3)c2)ncc1I)c1cccs1` [BX-795]: the “Score (sum of observed SD values for 18 genes)” value was −14.94 SD. Turning to `CCN(CCCOc1ccc2c(Nc3cc(CC(=O)Nc4cccc(F)c4)n[nH]3)ncnc2c1)CCOP(=O)(O)O` [Barasertib], the “Score (sum of observed SD values for 18 genes)” value turned out to be 20.03 SD.

As to `C=C(c1ccc(C(=O)O)cc1)c1cc2c(cc1C)C(C)(C)CCC2(C)C` [Bexarotene], the “Score (sum of observed SD values for 18 genes)” value is recorded as −1.35 SD. Take `CC(O)(CS(=O)(=O)c1ccc(F)cc1)C(=O)Nc1ccc(C#N)c(C(F)(F)F)c1` (stereo not drawn) [Bicalutamide]: the “Score (sum of observed SD values for 18 genes)” value is −23.24 SD. Same read-out and setting: as for `COc1cc(Nc2c(C#N)cnc3cc(OCCCN4CCN(C)CC4)c(OC)cc23)c(Cl)cc1Cl` [Bosutinib], the figure is −23.5 SD; as for `Cc1cc2c(F)c(Oc3ncnn4cc(OC[C@@H](C)O)c(C)c34)ccc2[nH]1` [Brivanib], −14.38 SD; as for `Nc1cc(C(F)(F)F)c(-c2cc(N3CCOCC3)nc(N3CCOCC3)n2)cn1` [Buparlisib], 8.79 SD. Regarding `CC[C@H](Nc1ncnc2[nH]cnc12)c1nc2cccc(F)c2c(=O)n1-c1ccccc1` [CAL-101], the “Score (sum of observed SD values for 18 genes)” value was −27.89 SD. On the same count and under the same terms, as for `CN1CCN(c2cccc(Nc3nc4c(-c5ccc(S(C)(=O)=O)cc5)cccn4n3)c2)CC1` [CEP33779], the figure is −27.66 SD. Take `CS(=O)(=O)N1CCc2c(-c3cnc(N)nc3)nc(N3CCOCC3)nc21` [CH5132799]: the “Score (sum of observed SD values for 18 genes)” value was found to be 15.96 SD.

As to `Cc1c[nH]c(-c2cnc(NCCNc3ccc(C#N)cn3)nc2-c2ccc(Cl)cc2Cl)n1` [CHIR-99021], the “Score (sum of observed SD values for 18 genes)” value was −2.4 SD.

For `O=C(NOCC1CC1)c1ccc(F)c(F)c1Nc1ccc(I)cc1Cl` [CI-1040], the “Score (sum of observed SD values for 18 genes)” value is reported as −45.66 SD and the “synergy / antagonism of drug” value was “among the top synergistic compounds”. Take `COc1cc2ncnc(-n3nc(-c4ccccn4)nc3N)c2cc1OC` [CP-466722]: the “Score (sum of observed SD values for 18 genes)” value amounted to 2.79 SD. In the case of `C#Cc1cccc(Nc2ncnc3cc(OC)c(OCCCCCCC(=O)NO)cc23)c1` [CUDC-101], the “Score (sum of observed SD values for 18 genes)” value is recorded as −46.83 SD; the “synergy / antagonism of drug” value was “mostly synergistic”; the “number of genes (of 18) whose knockdown synergizes with the drug” value was 11 genes. For the molecule `Cc1nc(N)sc1-c1ccnc(Nc2ccc(N3CCOCC3)cc2)n1` [CYC116], the “Score (sum of observed SD values for 18 genes)” value is −28.81 SD.

As for `Cc1ccc([C@@H]2O[C@H](CO)[C@@H](O)[C@H](O)[C@H]2O)cc1Cc1ccc(-c2ccc(F)cc2)s1` [Canagliflozin], the “Score (sum of observed SD values for 18 genes)” value is −25.46 SD. In the case of `N.N.O=C([O-])C1(C(=O)[O-])CCC1.[Pt+2]` [Carboplatin], the “Score (sum of observed SD values for 18 genes)” value is listed as −24.62 SD. `CCCCCCNC(=O)n1cc(F)c(=O)[nH]c1=O` [Carmofur]: the “Score (sum of observed SD values for 18 genes)” value is reported as −18.23 SD. Same read-out and setting: then `COc1cc2c(Oc3ccc4[nH]c(C)cc4c3F)ncnc2cc1OCCCN1CCCC1` [Cediranib], with −11.55 SD; and `Cc1cc(O)c2c(c1)C(=O)c1cccc(O)c1C2=O` [Chrysophanol], with −5.16 SD. Regarding `N.N.[Cl][Pt][Cl]` [Cisplatin], the “Score (sum of observed SD values for 18 genes)” value is −21 SD.

The values are drawn from US11946094B2, “Combination therapies and methods of use thereof” (Augusta University Research Institute, Inc., priority 2017, dated 2024).
